Measurements as given in US20220378816A1, “2-BENZYLIDENE HYDRAZINOADENOSINE COMPOUNDS HAVING A2A ADENOSINE RECEPTOR AGONISTIC ACTIVITY” (ACADEMY OF MILITARY MEDICAL SCIENCES, priority 2019, published 2022).
Where two headings read alike, the source gives them in different places.

Legend:
[1] = biological target: human adenosine receptor A2A (Homo sapiens, UniProt P29274); test: Adenosine receptor A2A cAMP test (LANCE Ultra cAMP, hADORA2A-HEK293 cells); assay type: cell-based; details: for hA2AAR agonist function: cAMP test; for EC50: stimulating production of cyclic AMP, hADORA2A-HEK293 cells
human adenosine receptor A2A, sequence (P29274 whole entry): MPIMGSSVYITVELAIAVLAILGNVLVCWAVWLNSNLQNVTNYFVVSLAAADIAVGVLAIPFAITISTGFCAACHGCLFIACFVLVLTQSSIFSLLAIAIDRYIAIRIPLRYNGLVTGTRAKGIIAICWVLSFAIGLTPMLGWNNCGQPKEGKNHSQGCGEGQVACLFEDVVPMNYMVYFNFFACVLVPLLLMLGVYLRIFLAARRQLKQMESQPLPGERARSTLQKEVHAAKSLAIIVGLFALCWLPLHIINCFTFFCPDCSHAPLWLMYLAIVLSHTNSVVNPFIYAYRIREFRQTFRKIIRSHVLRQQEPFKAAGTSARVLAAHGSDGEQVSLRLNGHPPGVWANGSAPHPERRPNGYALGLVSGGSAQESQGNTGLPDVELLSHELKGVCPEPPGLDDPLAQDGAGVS
Description: Experimental reagents and consumables: DMEM/F12, G418, Penicillin-Streptomycin, Versene Solution, HEPES, Hank's Buffered Saline Solution, PBS (pH 7.4, 1×, sterile), FBS, BSA Stabilizer 7.5%, Rolipram, NECA were separately purchased from Gibico, Hyclone and Sigma. LANCE® Ultra cAMP kit (Eu-cAMP tracer, Ulight-anti-cAMP reagent, cAMP detection buffer) and hADORA2A-HEK293 cells were purchased from PerkinElmer Research Products (Boston, Mass.). All other reagents were of analytical grade and obtained from commercial sources. 384-well polypropylene microplate and 384-well solid white plate were purchased from Labcyte and Corning, respectively.
The cells stably expressing human adenosine receptor A2A (hADORA2A-HEK293 cells) were cultured in DMEM/F12 medium containing 10% FBS, 1×Penicillin-Streptomycin and 400 μg/ml G418 in a 37° C. and 5% CO2 environment. Before the experiment, the cells were digested with Versene solution, and the cells were collected by centrifugation at 200 g and room temperature for 5 minutes, and finally resuspended with assay buffer (Hank's buffered saline solution, containing 5 mM HEPES, 0.1% BSA stabilizer and 10 μM Rolipram, pH 7.4). The TECAN automated liquid handling workstation was used to dilute the compound in a 384-well polypropylene microplate with DMSO to 11 concentration points in a 3-fold gradient to prepare the compound source plate, in which the 11 concentration points of the compound were 10 mM, 3.33 mM, 1.11 mM., 0.3 7mM, 0.1 2 mM, 0.041 mM, 0.013 mM, 4.57×10^−3 mM, 1.52×10^−3 mM, 5×10^−4 mM and 1.7×10^−4 mM. The Echo Acoustic Liquid Handler (Labcyte) was used to transfer the test compound from the compound source plate to an assay plate, in which the transfer volume of the compound was 10 nl/well. The hADORA2A-HEK293 cell suspension was diluted with assay buffer to 30,000 cells/ml, and the cell suspension was transferred to the assay plate at a volume of 10 μl/well (300 cells/well). The assay plate was centrifuged at 150 g for 1 minute and pre-incubated at room temperature for 30 minutes. The Eu-cAMP tracer working solution (Eu-cAMP tracer 40 μl, cAMP detection buffer 1.96 ml) (5 μl/well) was added to the assay plate, and then the Ulight-anti-cAMP working solution (13 μl of Ulight-anti-cAMP reagent and 1.95 ml of cAMP detection buffer) (5 µl/well) was added to the assay plate. The assay plate was rotated at 150 g for 30 seconds and incubated at room temperature for 30 minutes. The EnVision multimode plate reader (PerkinElmer) was used determine the level of cyclic adenosine monophosphate in the final solution (λex=320 nm, λem=665 nm & 615 nm). The EC50 (nM) value of the compound interacting with the A2A adenosine receptor to stimulate the production of cyclic adenosine monophosphate was calculated and the A2A receptor agonist titer of the compound was expressed as the EC50 (nM) value.

[2] = biological target: T1, (human) A2A adenosine receptors (Homo sapiens, UniProt P29274); test: Radioligand binding test ([3H]CGS21680 displacement, hA2A HEK-293 cell membranes); details: for Ki: read-out: Ki (inhibition constant)
T1 construct: purchased PerkinElmer Research Products (Boston, Mass.); host or cells: HEK-293
T1 sequence (P29274 whole entry): as above
Method: Cell membranes stably transfected with (human) A2A adenosine receptors were prepared in HEK-293 cells. The cell membranes were obtained from PerkinElmer Research Products (Boston, Mass.).
The A2A adenosine receptors used were all expressed in the cell membranes. […] (final 25 nM) was added to the diluted cell membrane, and mixed well. 50 μL of the prepared dilution solution of cell membrane was transferred to the 384-well Opti-plate containing compound and incubated at 25° C. for 90 minutes. 100 μL of 0.5% Polyethyleneimine solution (PEI) was added to […]-96 GF/B filter plate, and soaked for 90 minutes at 4° C., then 500 μL of washing buffer/well (50 mM Tris-HCl pH 7.4, 154 mM NaCl) was transferred with Cell Harvester to wash the […]-96 GF/B filter plate twice. The mixed system in the Opti-plate was transferred to the washed […]-96 GF/B filter plate, 500 μL of washing buffer/well (50 mM Tris-HCl pH 7.4, 154 mM NaCl) was used to wash the […]-96 GF/B filter plate 9 times. Incubation was performed in 37° C. incubator for 3 minutes. 40 μL of ULTIMA GOLD scintillation solution (Perkin Elmer, Cat #77-16061) was added to each well, CPM (count per minute) value was read by a MicroBeta liquid scintillation counter (PerkinElmer).

blood-brain barrier = test: Animal experiment of blood-brain barrier disruption (FITC-Dextran in brain of SD rats); assay type: in vivo
Method: Fluorescein-labeled dextran FITC-Dextran (CAS: 60842-46-8) with molecular weight of 10,000 MW was purchased from TCI (Shanghai) Development Co., Ltd.; PBS solution and experimental animal SD rats were obtained from commercial sources.
FITC-Dextran solutions with six concentration gradients ([…], 10 μg/ml) were prepared with PBS, and standard curve of FITC-Dextran concentration was made by using microplate reader (λex=490 nm, λem=520 nm). Additionally, 10 mg/ml FITC-Dextran solution was prepared, Compound 5 was added to PBS solution to prepare 1 mg/ml solution. 1 ml of 10 mg/ml FITC-Dextran solution and 1 ml of 1 mg/ml Compound 5 in PBS solution were taken and mixed to prepare administration solvent. 1 ml of 10mg/ml FITC-Dextran solution and 1 ml of PBS solution were taken and mixed to prepare blank control solution. 6 SD rats were injected with 2 ml of the administration solvent via tail vein, respectively, while another 6 SD rats were injected with 2 ml of the blank control solution via tail vein. […] The solution to be tested was subjected to fluorescence detection by using the microplate reader (λex=490 nm, λem=520 nm).
The measured fluorescence value by the microplate reader was converted into the corresponding FITC-Dextran average concentration according to the obtained standard curve of FITC-Dextran concentration.

Row | hA2AAR agonist function [1] | EC50 [1] | melting point | IC50 [2] | Ki ([2]; calculated from IC50 by Cheng and Prusoff equation, [S] 25 nM, Km […] nM) | Ki [2] | Structure (SMILES) | opening of the blood-brain barrier (blood-brain barrier; FITC-Dextran co-injected) | FITC-Dextran concentration in brain (blood-brain barrier; tail vein injection with FITC-Dextran (10,000 MW), brain taken after 30 minutes, average)
1 | shown as hA2AAR agonists | 4.1 nM | 144 °C | 11.7 nM | 5.5 nM |  | Nc1nc(N/N=C/c2ccc(OCc3ccc(F)cc3)cc2)nc2c1ncn2[C@@H]1O[C@H](CO)[C@@H](O)[C@H]1O [Compound 5, (2R,3R,4S,5R)-2-{6-amino-2-{2-{(E)-4-[(4-fluorobenzyl)oxy]benzylidene}hydrazino}-9H-purin-9-yl}-5-(hydroxymethyl)tetrahydrofuran-3,4-diol] | could open the blood-brain barrier | 0.11 µg/mL
2 | shown as hA2AAR agonists | 17.9 nM | 164 °C | 13.7 nM |  | 6.4 nM | CCN(CC)c1ccc(/C=N/Nc2nc(N)c3ncn([C@@H]4O[C@H](CO)[C@@H](O)[C@H]4O)c3n2)cc1 [Compound 15, (2R,3R,4S,5R)-2-{6-amino-2-{2-[(E)-4-(diethylamino)benzylidene]hydrazino}-9H-purin-9-yl}-5-(hydroxymethyl)tetrahydrofuran-3,4-diol] |  | 
3 |  | 15.3 nM | 276 °C | 18.1 nM |  | 8.5 nM | N#Cc1ccc(/C=N/Nc2nc(N)c3ncn([C@@H]4O[C@H](CO)C(O)C4O)c3n2)cc1 (stereo partly shown) [Compound 20] |  | 
